Experimental data from PubChem BioAssay (NCI).
Several values for one entry are separate records, joined by “and”; a condition that tells them apart may be missing. Identical values can stand only once.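 Protocol summary: plate cells (96-well), add compound at 5 concentrations, incubate 48 h, interpolate endpoints linearly. At the GI50, growth is halved. The concentration for full growth arrest is given as TGI.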

Key:
Assay in all cases: inhibition of tumour cell growth, NCI panel, 48 h
SK-MEL-5 melanoma = test system: SK-MEL-5 melanoma
SF-295 CNS = test system: SF-295 CNS
HS 578T breast = test system: HS 578T breast
SNB-19 CNS = test system: SNB-19 CNS
TK-10 renal = test system: TK-10 renal
SR leukemia = test system: SR leukemia
U251 CNS = test system: U251 CNS
BT-549 breast = test system: BT-549 breast
NCI-H522 lung = test system: NCI-H522 lung
OVCAR-5 ovarian = test system: OVCAR-5 ovarian

Row | Structure (SMILES) | GI50 (SK-MEL-5 melanoma) | TGI (SK-MEL-5 melanoma) | GI50 (SF-295 CNS) [µM] | TGI (SF-295 CNS) | GI50 (HS 578T breast) | TGI (HS 578T breast) | GI50 (SNB-19 CNS) | TGI (SNB-19 CNS) [µM] | GI50 (TK-10 renal) | GI50 (SR leukemia) | TGI (SR leukemia) [µM] | GI50 (U251 CNS) | TGI (U251 CNS) [µM] | GI50 (BT-549 breast) | TGI (BT-549 breast) | GI50 (NCI-H522 lung) | TGI (NCI-H522 lung) | GI50 (OVCAR-5 ovarian) | TGI (OVCAR-5 ovarian) [µM] | TGI (TK-10 renal) [µM]
1 | S=C(NCc1ccc2c(c1)OCO2)N1CCN(c2ncnc3c2oc2ccccc23)CC1 | 0.575 µM | 3.28 µM | 5.38 | > 100 µM | > 100 µM | > 100 µM | > 100 µM | > 100 | 1.12 µM | 3.7 µM | > 100 | 27.2 µM | > 100 | 26.9 µM | > 100 µM | 24 µM | > 100 µM | > 100 µM | > 100 | –
2 | Cc1ccc(S(=O)(=O)NC(=O)OC23COCN2COC3)cc1 | – | > 100 µM | – | > 100 µM | – | > 100 µM | – | > 100 | – | – | > 100 | – | > 100 | – | > 100 µM | – | > 100 µM | – | > 100 | > 100
3 | CC1(C)[C@H](O)[C@H](F)C[C@@]2(C)Oc3ccc(C(=O)Nc4ccc5c(c4)NC(=O)C54CCN(CCCCC#N)CC4)cc3C[C@H]12 | – | 2.9 µM and 1.55 µM | 0.00402 | 0.0181 µM | 0.00265 µM | 0.035 µM and 0.0352 µM | 0.412 µM and 1.07 µM | 6.81 | 3.44 µM | 0.0106 µM | 2.6 | 0.00414 µM | 2.02 | 0.0186 µM | 6.31 µM and 8.37 µM | 1.77 µM and 1.02 µM | 7.86 µM and 2.52 µM | 5.41 µM and 5.82 µM | 34.5 | 14.7
4 | c1ccc(CN2COc3c(ccc4c5c(ccc34)CN(Cc3ccccc3)CO5)C2)cc1 | – | > 100 µM | – | > 100 µM | – | > 100 µM | – | > 100 | – | – | > 100 | – | > 100 | – | > 100 µM | – | > 100 µM | – | > 100 | > 100
5 | CN1C(=NCCO)NS(=O)(=O)c2ccccc21 | – | > 100 µM | – | > 100 µM | – | > 100 µM | – | > 100 | – | – | > 100 | – | > 100 | – | > 100 µM | – | > 100 µM | – | > 100 | > 100
6 | N#C/C(=C\c1cc2ccc(N3CCC3)cc2oc1=O)C(=O)N(CC(=O)O)CC(=O)O | > 100 µM | > 100 µM | > 100 | > 100 µM | > 100 µM | > 100 µM | > 100 µM | > 100 | > 100 µM | > 100 µM | > 100 | > 100 µM | > 100 | > 100 µM | > 100 µM | > 100 µM | > 100 µM | > 100 µM | > 100 | > 100
7 | O=C(c1cc(Cc2n[nH]c(=O)c3ccccc23)ccc1F)N1CCN(C(=O)C2CC2)CC1 | 27.6 µM and 29.1 µM | > 100 µM | – | 23.4 µM and > 100 µM | 12.4 µM and > 100 µM | > 100 µM | 80.5 µM and > 85.1 µM | > 100 | > 100 µM and 48.1 µM | 7.78 µM and 14.1 µM | > 100 | 35.1 µM and 31.5 µM | > 100 | 32.2 µM and 33.6 µM | > 100 µM | > 100 µM | > 100 µM | > 100 µM | > 100 | > 100
8 | Cn1c(C(=O)c2cccc3ccccc23)nc2ccccc21 | > 100 µM | > 100 µM | > 100 | > 100 µM | > 100 µM | > 100 µM | > 100 µM | > 100 | > 100 µM | > 100 µM | > 100 | > 100 µM | > 100 | > 100 µM | > 100 µM | > 100 µM | > 100 µM | > 100 µM | > 100 | > 100
9 | O=C(c1ccco1)c1c(C(F)(F)F)n([O-])c2cc(F)c(F)cc2[n+]1=O | 0.256 µM | 1.23 µM | 0.737 | 2.17 µM | 0.655 µM | 2.63 µM | 1.02 µM | 2.35 | 0.204 µM | 0.0237 µM | 0.39 | 0.153 µM | 0.291 | 0.163 µM | 0.389 µM | 1.88 µM | 5.47 µM | 0.67 µM | 2.38 | 1.02
10 | C=C1C(=O)O[C@H]2[C@H]1CC/C(COC(=O)NCc1c[nH]c3ccc(F)cc13)=C\CC[C@@]1(C)O[C@@H]21 | 1.69 µM | 3.11 µM | 4.29 | 16.6 µM | 3.36 µM | 26.6 µM | 6.56 µM | 20 | 1.58 µM | 0.266 µM | 5.85 | 2.35 µM | 5.81 | 1.15 µM | 2.5 µM | 0.835 µM | 2.4 µM | 1.81 µM | 4.05 | 3
11 | COCCOCCOCCOCCOC(=O)OC[n+]1ccc(NC(=NCCCCCCOc2ccc(Cl)cc2)NC#N)cc1 | 1.43 µM | 11.6 µM | < 0.0418 | 12.5 µM | 1.11 µM | 43.6 µM | 0.199 µM | 18.3 | 13.2 µM | 0.0905 µM | > 45.6 | – | 18.7 | 5.71 µM | 20.5 µM | – | 18.7 µM | 3.98 µM | 22 | 26.4
12 | COc1cc(C(=O)/C=C/c2c(C(F)(F)F)nc3ccccn23)cc(OC)c1OC | 1.62 µM | 3.23 µM | 1.99 | 3.92 µM | 3.27 µM | 54.6 µM | 1.93 µM | 3.85 | 2.09 µM | 1.98 µM | > 100 | 1.29 µM | 3.31 | 1.64 µM | 3.95 µM | 1.77 µM | 3.91 µM | 1.98 µM | 4.02 | 4.33
13 | [Cl][Cu][Cl] | > 10 µM | > 10 µM | 3.6 | > 10 µM | > 10 µM | > 10 µM | > 10 µM | > 10 | > 10 µM | > 10 µM | > 10 | > 10 µM | > 10 | > 10 µM | > 10 µM | > 10 µM | > 10 µM | > 10 µM | > 10 | > 10
14 | C#CCNC(=O)NC(CCCCNC(=O)OCc1ccccc1)C(=O)OCc1ccccc1 (stereo not given) | – | 35.1 µM | – | > 100 µM | – | > 100 µM | – | > 100 | – | – | > 100 | – | > 100 | – | > 100 µM | – | 17.1 µM | – | > 100 | > 93
